Earlier results as cited in US20260057961A1, “CHROMOSOME 9P24 LOSS AND GAIN PREDICTS RESISTANCE AND BENEFIT OF IMMUNE CHECKPOINT INHIBITORS” (THE REGENTS OF THE UNIVERSITY OF CALIFORNIA, priority 2022, published 2026).

Columns and labels:
HNSC [1] = details: recurrent/metastatic setting after platinum failure
HNSC [2] = system: HNSC

For nivolumab, the “overall survival compared to chemotherapy or cetuximab” value (HNSC [1]) is given as “improved overall survival”.

In the case of pembrolizumab, the “overall survival compared to chemotherapy or cetuximab” value (HNSC [1]) is listed as “improved overall survival”, the “overall survival compared to chemotherapy” value (HNSC [2]; pembrolizumab alone, approximately 20% of patients, with no PD-L1 expression) is listed as “worse” and the “survival versus platinum/5FU/cetuximab” value (HNSC [2]; pembrolizumab monotherapy, patients whose tumors expressed PD-L1 protein by immunohistochemistry) is listed as “improved survival”.
